Values joined by “and” are separate entries in the source; they are usually repeats but may differ in a detail not shown here. Equal values may be shown once.
Test system: CX-1 Human Colon Carcinoma
Assay: Clonogenic dye screening assay, CX-1 cells (IC50)
Assay type: cell-based
Parameters: CX: unit not given here
Conditions: for CV/CX (selectivity, kill ratio): ratio of IC50 in normal CV-1 line to IC50 in carcinoma CX-1 line; for CX: CX-1 cells; for CX (IC50 in the CX-1 cell line): 3 hrs treatment, colonies after 7-10 days, unit from method b117-118; for CV/C: selectivity ratio, value of 1 where dye inactive
Source text: CX-1 is a cancerous human colon adenocarcinoma cell line. CV-1 is a non-cancerous control, which is a kidney epithelial cell line from an African green monkey. IC50 is the dye concentration at which 50% of the cells are killed. Selectivity or kill ratio is defined as the ratio of […] at IC50 for both CX-1 and CV-1. A ratio with a high number indicates a high selectivity.
The dyes were screened in two cell lines. CX-1 is a human colon adenocarcinoma cell line. CV-1 is a kidney epithelial cell line from an African green monkey. CV-1 was used as a reference because no normal human epithelial cell line is available for clonogenic assay.
In the initial screen, dyes were examined at six different concentrations to generate a dose response curve. An IC50 value, the concentration at which 50% of the cells are killed, was then calculated. Initially, a dye concentration of 1.0 μg/mL was the highest examined for the CX-1 cell line and 0.005 μg/mL was the lower limit. The corresponding limits on the CV-1 cell line were […].
The screening procedure used a response curve that was determined from eight dye concentrations. The upper and lower limits of CX-1 were 0.32 and 0.0015 μg/mL, respectively, and the corresponding revised limits on CV-1 were 3.2 and 0.025 μg/mL. The screening results were reported by assigning an IC50 value to each dye for the CV-1 and CX-1 cell lines. These values will be referred to herein simply as CV and CX. The most desirable result would be to have a dye that was highly toxic to carcinoma cells but nontoxic to ‘normal’ cells. One measure of this type of selectivity is the ratio of the IC50's in the normal cell line to that in the carcinoma line, CV/CX.
Compounds are screened via an in vitro assay. CV-1 and CX-1 cells are seeded into separate assay plates. The plates are treated with varying concentrations of test compounds, rinsed, and colonies allowed to grow. IC50's are determined and drugs evaluated based on their selectivity and toxicity. Assay Steps: • I. Seeding Cells • II. Weighing • III. Preparation of Solution • IV. Treatment • V. Rinsing and Feeding • VI. Fixing • VII. IC50 Determination I. Seeding Cells
The cells should be seeded 16-30 hours before treatment. The media for CV-1 cells is DME+5% calf serum +5% Nuserum. The media for CX-1 cells is RPMI/DME (50/50)+5% calf serum +5% Nuserum.
(c) number of cells based on 2000 CX-1 cells/well and 1000 CV-1 cells/well. NOTE: Always make enough cell suspension for 1 extra plate to allow for volume loss during transfers.
• (a) For CV-1: 256 ug/ml-256 ul of 1 mg/ml stock +744 ul DMSO • (b) For CX-1: 25.6 ug/ml-100 ul of 256 ug/ml+900 ul DMSO IV. Treatment • 1. Each plate is treated with 4 test compounds, one positive control and one negative control. • 2. Serial dilutions of the compounds are made in the following way:
2 multi-well pipetters are used. One is set for 10 ul and one for 200 ul. Each is equipped with 6 tips spaced such that they fit into the 6 rows of a plate. 390 ul of media is added to the first column of each plate. 10 ul each of 4 compound solutions, a positive and a negative control are taken up and put into the first column of wells. The 200 ul pipetter is then placed in the same wells, pipetted up and down 3 times and two 200 ul aliquots are moved to the next column of wells. This column is pipetted up and down 3 times and 400 ul moved to column 3, etc. The final 400 ul excess from column 8 is discarded.
• 3. Label the plates along the front, each row −1 compound. • 4. Incubate the plates at 37° C. for 3 hrs. V. Rinsing • 1. Prepare several bottles of CX-1 and CV-1 media. • 2. Check for precipitate in first column of each plate and note. • 3. Starting with the plates treated first, rinse several plates at a time by aspirating the treatments and refilling each well with 0.5-1.0 ml of the rinse media. Aspirate and refill 2 more times for a total of 3 rinses. • 4.

[1] = Table XVI, selectivity ratio of IC50 values
[2] = Table XV, selectivity ratio of IC50 values
[3] = Table XXI, oxathiacarbocyanine nitrogen substituents
[4] = Table XX, thiacarbocyanine nitrogen substituents
[5] = Table XX, ratio given a value of 1 where dye inactive

Row | Compound | CV/CX (selectivity, kill ratio) | CX [3] | CV/C (Table XXI) | further results
1 | CCN1C(=CC=c2sc(=Cc3sc4c([n+]3CC)CCCC4)n(CC)c2=O)Oc2ccccc21.[I-] (mixture of isomers) [Dye D-170] | 100.0 | – | – | –
2 | CCN1/C(=C/C=C/c2sc3ccccc3[n+]2CC)C(C)(C)c2ccccc21 [3H-indole (3,3-Me)] | – | – | – | CX (Table XVI, unsymmetrical dyes): 0.16; CV/CX [1]: 0.3
3 | CCN1C=CC(=C/C=C/c2sc3ccccc3[n+]2CC)c2ccsc21 [4-thieno/2,3-b/pyridine] | – | – | – | CX (Table XVI, unsymmetrical dyes): 0.04; CV/CX [1]: 5.0
4 | CC[n+]1c(/C=C/C=C2C=CC=CN2C)sc2ccccc21 [Dye 2-pyridine] | – | – | – | CX (Table XVI, unsymmetrical dyes): 0.08; CV/CX [1]: 50.0
5 | CCN1C(=C/C=C/c2sc3ccccc3[n+]2C)C=Cc2ccccc21 [Dye 2-quinoline] | – | – | – | CX (Table XVI, unsymmetrical dyes): <0.005; CV/CX [1]: >20.0
6 | CC[n+]1c(/C=C/C=C2C=CN(C)c3ccccc32)sc2ccccc21 [Dye 4-quinoline] | – | – | – | CX (Table XVI, unsymmetrical dyes): 0.01; CV/CX [1]: 40.0
7 | CCN1C=C(c2ccccc2)SC1=CC=Cc1sc2ccccc2[n+]1CC [Dye 5-Ph-thiazole] | – | – | – | CX (Table XVI, unsymmetrical dyes): 0.03; CV/CX [1]: 16.7
8 | CN1C(=CC=Cc2[te]c3ccccc3[n+]2C)[Te]c2ccccc21 [Dye B19682] | – | – | – | CX (Table XV, symmetrical dyes): 0.3; CV/CX [2]: 16.7
9 | CCN1C(=CC=Cc2ccc3ccccc3[n+]2CC)C=Cc2ccccc21 [Dye B-301] | – | – | – | CX (Table XV, symmetrical dyes): 0.040; CV/CX [2]: 12.5
10 | CCN1C(=CC=Cc2oc3ccccc3[n+]2CC)Oc2ccccc21 [Dye B-400] | – | – | – | CX (Table XV, symmetrical dyes): 0.10; CV/CX [2]: 30.0
11 | CN1C(=CC=Cc2[se]c3ccccc3[n+]2C)[Se]c2ccccc21 [Dye B-405] | – | – | – | CX (Table XV, symmetrical dyes): 0.008; CV/CX [2]: 7.5
12 | C(/C=C/c1sc2cccc3c2[n+]1CCC3)=C1/Sc2cccc3c2N1CCC3 [Dye D-102] | 160 | – | – | CX (IC50 in the CX-1 cell line): <0.005 µg/mL
13 | CCN1/C(=C/C=C/c2sc3cc(Cl)ccc3[n+]2CC)Sc2cc(Cl)ccc21 [Dye D-105] | 112.5 | – | – | CX (IC50 in the CX-1 cell line): 0.008 µg/mL; Selectivity (Table 1, cell line not given, values equal CV/CX of Table II): 112.5
14 | CCN(CC)CCN1/C(=C/C=C/c2oc3ccccc3[n+]2CC)Sc2ccccc21.I.[I-] [Dye D-116] | 80 | – | – | –
15 | CCN1C=C(c2ccccc2)O/C1=C\C=C\c1oc(-c2ccccc2)c[n+]1CC.[I-] [Dye D-118] | 93.75 | – | – | CX (IC50 in the CX-1 cell line): 0.08 µg/mL
16 | CC[n+]1c(/C=C/C=C2\SC(C)=C(C)N2C)oc2ccccc21.[I-] [Dye D-119] | 60 | – | – | CX (IC50 in the CX-1 cell line): 0.05 µg/mL
17 | CCN1/C(=C/C=C/c2c3ccccc3c3ccccc3[n+]2C)Sc2ccccc21 [Dye D-129] | 87.5 | – | – | CX (IC50 in the CX-1 cell line): 0.008 µg/mL; CX (Table XVI, unsymmetrical dyes): 0.008; CV/CX [1]: 87.5
18 | CCn1c(=O)/c(=C/C=C2\C=Cc3cccc4c3N2CCC4)s/c1=C\c1oc2ccccc2[n+]1CC [Dye D-143] | 100 | – | – | CX (IC50 in the CX-1 cell line): 0.1 µg/mL
19 | CC[n+]1c(/C=C/C=C2\[Te]c3ccccc3N2C)sc2ccc3ccccc3c21.[I-] [Dye D-151] | 71 and 71.42 | – | – | CX (IC50 in the CX-1 cell line): 0.007 µg/mL; CX (Table XVII, benzotellurazole derivatives): 0.007; CV/CX (Table XVII, selectivity ratio of IC50 values): 71.4
20 | CCN1/C(=C/C=C/c2oc3ccc(-c4ccccc4)cc3[n+]2CCNC(C)=O)Sc2ccc(OC)cc21.F[B-](F)(F)F [Dye D-154] | 160 | – | – | CX (IC50 in the CX-1 cell line): 0.05 µg/mL
21 | CCN1/C(=C/C=C/c2sc3cc(Cl)ccc3[n+]2CC)Sc2cc(Cl)ccc21.[I-] [Dye D-164] | 112.5 | – | – | –

Row | Compound | CV/CX (selectivity, kill ratio) | CX [3] | CV/C (Table XXI) | further results
22 | CCN1/C(=C/C=C/c2sc3ccccc3[n+]2CC)Sc2ccccc21.[I-] [Dye D-165] | 100 | – | – | CV/CX [1]: 100.0
23 | CCN1/C(=C/C(=C/c2oc3ccccc3[n+]2C)SC)Sc2ccc(Cl)cc21.[I-] [Dye D-169] | 100.0 | – | – | –
24 | CCOC(=O)c1c(C)c(C=CC=C2SCCN2C)cc2[n+]1CCc1ccccc1-2.[O-][Cl+3]([O-])([O-])[O-] [Dye D-171] | 62.5 | – | – | –
25 | C=C(Br)C[n+]1c(/C=C/C=C2\Oc3ccccc3N2CC)sc2ccccc21 [R1=CC(Br)═C, R2=Et] | – | 0.03 | 33.3 | –
26 | CCN(CC)C(=O)C[n+]1c(/C=C/C=C2\Oc3ccccc3N2CC)sc2ccccc21 [R1=CC(═0)N(Et)2, R2=Et] | – | 0.3 | >33.3 | –
27 | CCN1/C(=C/C=C/c2sc3ccccc3[n+]2CC(=O)c2ccccc2)Oc2ccccc21 [R1=CC(═0)Ph, R2=Et] | – | 0.3 | 10.0 | –
28 | CCN1/C(=C/C=C/c2sc3ccccc3[n+]2CC(=O)c2ccc(O)cc2O)Oc2ccccc21 [R1=CC(═0)Ph-2,4-OH, R2=Et] | – | 0.3 | >33.3 | –
29 | CCN1/C(=C/C=C/c2sc3ccccc3[n+]2CC(=O)c2ccc(O)c(O)c2)Oc2ccccc21 [R1=CC(═0)Ph-3,4-OH, R2=Et] | – | >1.0 | 1.0 | –
30 | CCN1/C(=C/C=C/c2sc3ccccc3[n+]2CC(=O)N2CCOCC2)Oc2ccccc21 [R1=CC(═0)morpholino, R2=Et] | – | >1.0 | 1.0 | –
31 | CCN1/C(=C/C=C/c2sc3ccccc3[n+]2CC(N)=O)Oc2ccccc21 [R1=CC(═O)N, R2=Et] | – | – | >10.0 | –
32 | CCSC(CCN1/C(=C/C=C/c2sc3ccccc3[n+]2CCC(SCC)SCC)Sc2ccccc21)SCC [R1=CCC(SEt)2, R2=CCC(SEt)2] | – | – | – | CX [4]: >0.32; CV/CX [5]: 4.1
33 | CCN1/C(=C/C=C/c2sc3ccccc3[n+]2CCC(=O)N(c2ccccc2)C(C)C)Oc2ccccc21 [R1=CCC(═O)N(iPr)Ph, R2=Et] | – | 0.03 | 26.7 | –
34 | CCN1/C(=C/C=C/c2sc3ccccc3[n+]2CCC=O)Oc2ccccc21 [R1=CCC═0, R2=Et] | – | 0.1 | 50.0 | –
35 | CCN1/C(=C/C=C/c2sc3ccccc3[n+]2CCC=NNC(N)=S)Oc2ccccc21 [R1=CCC═NNC(═S)N, R2=Et] | – | >1.0 | 1.0 | –
36 | CCN1/C(=C/C=C/c2sc3ccccc3[n+]2CCC=NNS(=O)(=O)c2ccc(C)cc2)Oc2ccccc21 [R1=CCC═NNS02Ph-4C, R2=Et] | – | 0.3 | 33.3 | –
37 | CCN1/C(=C/C=C/c2sc3ccccc3[n+]2CCNS(=O)(=O)c2ccc(C)cc2)Oc2ccccc21 [R1=CCNS02Ph-4C, R2=Et] | – | 0.3 | 26.7 | –
38 | OCCN1/C(=C/C=C/c2sc3ccccc3[n+]2CCO)Sc2ccccc21 [R1=CCOH, R2=CCOH] | – | – | – | CX [4]: >0.32; CV/CX [5]: 1.0
39 | CCN1/C(=C/C=C/c2sc3ccccc3[n+]2CCS(=O)(=O)CC)Oc2ccccc21 [R1=CCS02CC, R2=Et] | – | 0.3 | >33.3 | –
40 | CSCCN1C(=CC=Cc2sc3ccccc3[n+]2CCSC)Sc2ccccc21 [R1=CCSMe, R2=CCSMe] | – | – | – | CX [4]: 0.015; CV/CX [5]: 12.0
41 | CC[n+]1c(/C=C/C=C2\Oc3ccccc3N2CC(=O)c2ccccc2)sc2ccccc21 [R1=Et, R2=C(C═O)Ph] | – | 0.8 | 3.7 | –
42 | CC[n+]1c(/C=C/C=C2\Oc3ccccc3N2CC(F)(F)F)sc2ccccc21 [R1=Et, R2=CC(F)3] | – | 0.1 | 50.0 | –

— US20060099712A1, “Correlation of anti-cancer activity of dyes with redox potentials” (Eastman Kodak Company, priority 2004, published 2006)
